Measurements reported in ChEMBL document CHEMBL4602703, “Lead Optimization of a Pyrrole-Based Dihydroorotate Dehydrogenase Inhibitor Series for the Treatment of Malaria” (J Med Chem, 2020).
Converted amounts (≈) assume the structure as drawn.

How the values were obtained:
[1] = Intrinsic clearance in human liver microsomes assessed as per mg protein; type: ADME, Microsome
[2] = system: Plasmodium falciparum; type: functional, organism-based; settings: R10C1B, 72 h
[3] = system: HepG2; experiment: Cytotoxicity against human HepG2 cells assessed as reduction in cell viability; type: cell-based
[4] = biological target: Voltage-gated inwardly rectifying potassium channel KCNH2 (Homo sapiens, UniProt Q12809); experiment: Inhibition of human ERG by IonWorks patch clamp electrophysiology assay
[5] = Protein binding in rat plasma by LC-MS analysis based ultracentrifugation assay; type: ADME, cell-free; settings: read-out: PPB (converted)
[6] = biological target: T1, Cytochrome P450 2D6 (Homo sapiens, UniProt P10635); experiment: Inhibition of CYP2D6 in human liver microsomes using dextromethorphan as substrate measured for 10 to 30 mins in presence of NADPH regenerating system by UPLC-MS analysis; type: ADME
[7] = AUC (0 to infinity) in Swiss mouse at […], iv administered as bolus dose measured up to 24 hrs by UPLC-MS analysis; type: ADME, organism-based; parameters: dose 2.8 mg/kg, route intravenous, time infinity; settings: in vivo
[8] = Apparent half life in Swiss mouse at 18.3 mg/kg, po via gavage measured up to 24 hrs by UPLC-MS analysis; type: ADME, organism-based; settings: in vivo
[9] = Cmax in Swiss mouse at 18.3 mg/kg, po via gavage measured up to 24 hrs by UPLC-MS analysis; type: ADME, organism-based; parameters: dose 18.3 mg/kg, route oral; settings: in vivo
[10] = Cmax in Swiss mouse blood at 18.3 mg/kg, po via gavage measured up to 24 hrs by UPLC-MS analysis; type: ADME, organism-based; parameters: dose 18.3 mg/kg, route oral; settings: in vivo
[11] = Oral bioavailability in Swiss mouse at 18.3 mg/kg dosed via gavage measured up to 24 hrs by UPLC-MS analysis; type: ADME, organism-based; settings: in vivo
[12] = AUC (0 to infinity) in Swiss mouse at 50 mg/kg, po via gavage measured up to 24 hrs by UPLC-MS analysis; type: ADME, organism-based; parameters: dose 50 mg/kg, route oral, time infinity; settings: in vivo
[13] = AUC (0 to infinity) in Swiss mouse blood at 50 mg/kg, po via gavage measured up to 24 hrs by UPLC-MS analysis; type: ADME, organism-based; parameters: dose 50 mg/kg, time infinity, route oral; settings: in vivo
[14] = Volume of distribution at steady state in Sprague-Dawley rat at […], iv administered as infusion for 10 mins and measured up to 24 hrs by LC-MS analysis; type: ADME, organism-based; settings: in vivo, read-out: Vdss
[15] = AUC (0 to infinity) in Sprague-Dawley rat at 3 mg/kg, po administered via gavage measured up to 24 hrs by LC-MS analysis; type: ADME, organism-based; parameters: dose 3 mg/kg, route oral, time infinity; settings: in vivo
[16] = Cmax in Sprague-Dawley rat at 33 mg/kg, po administered via gavage measured up to 24 hrs by LC-MS analysis; type: ADME, organism-based; parameters: dose 33 mg/kg, route oral; settings: in vivo
[17] = AUC (0 to infinity) in Sprague-Dawley rat at 33 mg/kg, po administered via gavage measured up to 24 hrs by LC-MS analysis; type: ADME, organism-based; parameters: dose 33 mg/kg, time infinity, route oral; settings: in vivo
[18] = Cmax in NOD-SCID IL2Rgamma null mouse blood infected with Plasmodium falciparum 3D70087/N9 at 10 mg/kg, po qd for 4 days starting from 3 days post infection and measured after 24 hrs post dose by LC-MS/MS analysis; type: ADME, organism-based; parameters: dose 10 mg/kg, route oral
[19] = AUC (0 to 23 hrs) in NOD-SCID IL2Rgamma null mouse blood infected with Plasmodium falciparum 3D70087/N9 at 10 mg/kg, po qd for 4 days starting from 3 days post infection and measured after 24 hrs post dose by LC-MS/MS analysis; type: ADME, organism-based; parameters: dose 10 mg/kg, time < 23 hr, route oral
[20] = AUC (0 to 23 hrs) in NOD-SCID IL2Rgamma null mouse blood infected with Plasmodium falciparum 3D70087/N9 at 50 mg/kg, po qd for 4 days starting from 3 days post infection and measured after 24 hrs post dose by LC-MS/MS analysis; type: ADME, organism-based; parameters: dose 50 mg/kg, time < 23 hr, route oral
[21] = fAUC in Plasmodium falciparum 3D70087/N9 infected po dosed NOD-SCID IL2Rgamma null mouse blood administered once daily for 4 days; type: ADME, organism-based; settings: in vivo, 96 h
[22] = biological target: T2, Cytochrome P450 1A2 (Homo sapiens, UniProt P05177); experiment: Time-dependent inhibition of CYP1A2 in human liver microsomes using phenacetin as substrate in presence of NADPH regenerating system by UPLC-MS analysis; type: ADME
T2 sequence (P05177 whole entry): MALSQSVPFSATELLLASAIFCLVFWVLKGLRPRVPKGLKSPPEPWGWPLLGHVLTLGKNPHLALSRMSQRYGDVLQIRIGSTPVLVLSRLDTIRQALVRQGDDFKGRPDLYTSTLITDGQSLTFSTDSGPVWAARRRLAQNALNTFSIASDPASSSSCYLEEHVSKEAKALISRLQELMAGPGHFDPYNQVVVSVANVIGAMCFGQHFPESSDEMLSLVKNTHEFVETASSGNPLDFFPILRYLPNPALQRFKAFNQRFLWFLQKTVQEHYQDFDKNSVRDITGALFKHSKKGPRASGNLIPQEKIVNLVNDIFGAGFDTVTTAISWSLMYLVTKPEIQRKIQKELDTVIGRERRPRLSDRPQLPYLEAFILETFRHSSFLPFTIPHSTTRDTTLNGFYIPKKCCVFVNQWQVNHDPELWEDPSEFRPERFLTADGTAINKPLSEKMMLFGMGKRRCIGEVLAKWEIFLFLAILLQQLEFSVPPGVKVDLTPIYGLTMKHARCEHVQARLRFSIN

[23] = biological target: T1, Cytochrome P450 2D6; experiment: Time-dependent inhibition of CYP2D6 in human liver microsomes using dextromethorphan as substrate in presence of NADPH regenerating system by UPLC-MS analysis; type: ADME
[24] = biological target: Cytochrome P450 2C19 (Homo sapiens, UniProt P33261); experiment: Time-dependent inhibition of CYP2C19 in human liver microsomes using (S)-mephenytoin as substrate in absence of NADPH regenerating system by UPLC-MS analysis; type: ADME
[25] = biological target: T1, Cytochrome P450 2D6; experiment: Time-dependent inhibition of CYP2D6 in human liver microsomes using dextromethorphan as substrate in absence of NADPH regenerating system by UPLC-MS analysis; type: ADME
[26] = Toxicity in Plasmodium falciparum 3D70087/N9 infected NOD-SCID IL2Rgamma null mouse at 50 mg/kg, po administered once daily for 4 days measured 24 hrs post dose; type: organism-based; settings: in vivo
[27] = simulated gi fluid, pH 1.6
[28] = simulated gi fluid, pH 5.8
[29] = biological target: T3, CYP3A4/5 (Homo sapiens, UniProt P08684+P20815); experiment: in vitro; settings: liver microsomes, probe midazolam
[30] = biological target: T3, CYP3A4/5; experiment: in vitro; settings: liver microsomes, probe midazolam; remark: listed apart in the source
[31] = Intrinsic clearance in liver microsomes assessed as per mg protein; settings: read-out: CLH
[32] = Cmax in Swiss mouse blood at 10.5 mg/kg, po via gavage measured up to 24 hrs by UPLC-MS analysis; settings: in vivo
[33] = Cmax in NOD-SCID IL2Rgamma null mouse blood infected with Plasmodium falciparum 3D70087/N9 at 50 mg/kg, po qd for 4 days starting from 3 days post infection and measured after 24 hrs post dose by LC-MS/MS analysis

T1 sequence (P10635 whole entry): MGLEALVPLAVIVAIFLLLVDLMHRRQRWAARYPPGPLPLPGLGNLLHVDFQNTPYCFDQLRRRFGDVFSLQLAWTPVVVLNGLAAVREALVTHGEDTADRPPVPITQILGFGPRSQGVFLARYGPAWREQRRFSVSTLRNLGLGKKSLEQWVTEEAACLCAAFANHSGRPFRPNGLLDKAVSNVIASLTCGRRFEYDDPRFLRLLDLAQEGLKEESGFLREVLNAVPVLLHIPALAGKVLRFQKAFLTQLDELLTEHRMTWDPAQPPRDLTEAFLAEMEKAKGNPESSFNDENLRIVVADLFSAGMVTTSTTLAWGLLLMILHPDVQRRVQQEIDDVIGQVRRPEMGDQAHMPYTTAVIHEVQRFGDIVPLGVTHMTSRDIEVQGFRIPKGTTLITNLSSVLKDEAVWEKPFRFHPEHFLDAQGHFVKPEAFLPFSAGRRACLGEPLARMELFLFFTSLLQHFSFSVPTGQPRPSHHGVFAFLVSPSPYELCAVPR
Chain of Voltage-gated inwardly rectifying potassium channel KCNH2 (Q12809 whole entry): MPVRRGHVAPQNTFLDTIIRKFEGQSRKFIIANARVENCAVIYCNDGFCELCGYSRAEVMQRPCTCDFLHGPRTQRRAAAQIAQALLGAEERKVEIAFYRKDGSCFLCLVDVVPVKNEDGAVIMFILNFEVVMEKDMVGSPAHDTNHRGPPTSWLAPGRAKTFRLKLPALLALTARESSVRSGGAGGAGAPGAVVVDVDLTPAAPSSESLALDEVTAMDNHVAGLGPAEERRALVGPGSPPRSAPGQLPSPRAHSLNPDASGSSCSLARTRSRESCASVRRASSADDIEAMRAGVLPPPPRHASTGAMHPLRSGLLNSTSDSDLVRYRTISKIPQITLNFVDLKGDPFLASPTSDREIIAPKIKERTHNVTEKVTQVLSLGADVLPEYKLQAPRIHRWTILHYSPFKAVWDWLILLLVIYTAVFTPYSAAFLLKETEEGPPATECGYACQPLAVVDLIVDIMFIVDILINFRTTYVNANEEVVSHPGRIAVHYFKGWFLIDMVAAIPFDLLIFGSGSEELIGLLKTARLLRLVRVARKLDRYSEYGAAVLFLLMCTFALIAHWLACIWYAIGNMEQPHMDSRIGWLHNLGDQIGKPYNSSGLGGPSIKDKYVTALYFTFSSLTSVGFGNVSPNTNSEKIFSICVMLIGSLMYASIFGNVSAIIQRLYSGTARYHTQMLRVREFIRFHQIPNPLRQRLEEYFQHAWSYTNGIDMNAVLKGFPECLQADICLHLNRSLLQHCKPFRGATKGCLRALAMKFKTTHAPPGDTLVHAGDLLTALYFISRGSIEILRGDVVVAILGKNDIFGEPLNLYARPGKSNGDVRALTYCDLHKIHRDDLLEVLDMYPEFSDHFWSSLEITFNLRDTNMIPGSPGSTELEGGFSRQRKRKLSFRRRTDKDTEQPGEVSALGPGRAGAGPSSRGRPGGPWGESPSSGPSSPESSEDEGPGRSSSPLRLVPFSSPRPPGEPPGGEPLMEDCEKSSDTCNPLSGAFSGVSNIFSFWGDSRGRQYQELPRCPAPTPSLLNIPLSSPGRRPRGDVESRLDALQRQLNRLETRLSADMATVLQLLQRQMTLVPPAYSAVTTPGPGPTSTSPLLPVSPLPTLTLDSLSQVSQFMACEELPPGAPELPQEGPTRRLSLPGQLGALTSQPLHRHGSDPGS
Chain of Cytochrome P450 2C19 (P33261 whole entry): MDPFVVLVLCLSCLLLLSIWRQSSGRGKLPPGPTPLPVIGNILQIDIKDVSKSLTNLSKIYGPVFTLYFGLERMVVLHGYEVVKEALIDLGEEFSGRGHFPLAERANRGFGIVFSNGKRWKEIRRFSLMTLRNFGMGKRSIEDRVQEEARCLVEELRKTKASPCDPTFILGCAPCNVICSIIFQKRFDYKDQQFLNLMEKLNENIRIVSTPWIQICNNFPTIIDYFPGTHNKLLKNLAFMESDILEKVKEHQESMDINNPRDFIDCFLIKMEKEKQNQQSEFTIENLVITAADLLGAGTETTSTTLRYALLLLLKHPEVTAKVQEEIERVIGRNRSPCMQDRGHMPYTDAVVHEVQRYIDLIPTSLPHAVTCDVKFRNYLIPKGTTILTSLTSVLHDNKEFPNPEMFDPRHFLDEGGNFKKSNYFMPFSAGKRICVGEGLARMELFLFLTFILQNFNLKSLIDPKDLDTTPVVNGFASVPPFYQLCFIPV

Q: For `Cc1c(Cc2ccc(C(F)(F)F)nc2)c[nH]c1C(=O)NC1CC1`, which microsomal CLint [1] is on record?
A: 10 µL/min/mg

Q: What about the EC50 [2] of the same molecule?
A: 0.024 µM

Q: And the CC50 [3]?
A: > 50 µM

Q: What about the EC50 [4] of the same molecule?
A: > 33 µM

Q: And the fraction unbound [5]?
A: 0.118

Q: And the IC50 [6]?
A: > 20 µM

Q: And the AUC [7]?
A: 5.6 µM·h

Q: And the “t1/2(app)” value [8]?
A: 2.6 h

Q: And the Cmax [9]?
A: 8.4 µM

Q: And the Cmax [10]?
A: 6.7 µM

Q: And the F [11]?
A: > 100%

Q: What about the AUC [12] of the same molecule?
A: 220 µM·h

Q: And the AUC [13]?
A: 176 µM·h

Q: And the Vd [14]?
A: 4.7 L/kg

Q: And the AUC [15]?
A: 5.1 µM·h

Q: What about the Cmax [16] of the same molecule?
A: 27 µM

Q: And the AUC [17]?
A: 204 µM·h

Q: What about the Cmax [18] of the same molecule?
A: 0.6 µM

Q: What about the AUC at 23 h [19] of the same molecule?
A: 2.1 µM·h

Q: What about the AUC at 23 h [20] of the same molecule?
A: 26.7 µM·h

Q: And the fAUC [21]?
A: 1100 ng·h/mL

Q: What about the TDI [22] of the same molecule?
A: Not Active

Q: What about the TDI [23] of the same molecule?
A: Not Active

Q: What about the TDI [24] of the same molecule?
A: Not Active

Q: And the TDI [25]?
A: Active

Q: And the Activity [26]?
A: Toxic

Q: And the solubility [27]?
A: 46.4 µg/mL (≈ 144 µM)

Q: And the solubility [28]?
A: 115 µg/mL (≈ 356 µM)

Q: What about the IC50 [29] of the same molecule?
A: > 20 µM

Q: What about the IC50 [30] of the same molecule?
A: 5.5 µM

Q: What about the microsomal CLint [31] of the same molecule?
A: 24 µL/min/mg

Q: What about the Cmax [32] of the same molecule?
A: 3.7 µM

Q: And the Cmax [33]?
A: 7.81 µM
